Results published in patent US20050234015A1, “Low molecular weight heparin salt with triethanolamine useful as therapeutic-antitrombotic agent of local delivery, procedures for preparing them, process for elimination of hygroscopicity of heparin salt, pharmaceutical compositions for local use in antithrombotic therapy and uses therein” (priority 2004, published 2005).
Like-named read-outs stand apart in the source and are kept apart here.

Key:
[1] = anticoagulant strength of injectable heparin according to European Pharmacopoeia 2002 (EP strength); type: biochemical
Experimental: (§1) 7) Analytical Techniques Used • The anticoagulant strength of injectable heparin was determined according to European Pharmacopoeia 2002 (EP strength) and to USP 26 (USP strength) • Anti Xa and anti ha strengths were determined according to the literature of low molecular weight heparins (European Pharmacopoeia 2002) • Distribution of molecular weights and mean ponderal molecular weight were determined according to the literature of low molecular weight heparins (European Pharmacopoeia 2002), therefore, in the run buffer, TEA is replaced by Na^+ and the data obtained then pertain to polysaccharide sodium salt and not to TEA salt. • Triethanolamine is dosed by potentiometric titration.

IIa [2] = target: T1, IIa (Homo sapiens, UniProt P00734); assay: anti IIa strength, European Pharmacopoeia 2002 Low Molecular Mass Heparin; type: biochemical
Experimental: (§2) The anti Xa and anti IIa biological strengths were measured according to the European Pharmacopoeia EP2002; “Low Molecular Mass Heparin”, as well as the mean molecular weights (weighed average Mw) and the molecular weight distribution. Moreover, the standards and gages are those strictly cited in the mentioned literature. It is noted that in the run buffer for the chromatographic test by HPLC (Na2SO4, 0.2M pH 5.0) the TEA is replaced by N^a+ whereby the declared value is that of the sodium polysaccharide fraction and not the one of the LMWH-TEA salt.
as §1

Xa [3] = assay: anti Xa strength, European Pharmacopoeia 2002 Low Molecular Mass Heparin; type: biochemical
Experimental: as §2, §1

[4] = hygroscopicity of the lyophilized product (observation); type: physicochemical; details: lyophilized solid
Source text: The salt obtained from the reaction of the triethanolamine (TEA) with the low molecular weight heparin (LMWH) is an amber colored substance, with a waxy appearance, extremely difficult to manipulate due to its high hygroscopicity. These characteristics of the LMWH-TEA salt make extremely difficult its precise dosage in the preparation of the pharmaceutical end products (creams, gels, ointments).

[5] = tested on: experimental thrombosis in the tail of the test rat; assay: κ-carrageenan rat tail thrombosis model, local cream treatment; type: in vivo, Wister rats (female); details: 1000 u antiXa/gram, compared with local heparin and LMWH sodium salt creams
Source text: With such criteria, Wister rats (female) raised in the laboratory and sanitarily controlled were used as test mammal.
Particularly, the thrombosis model developed consists of generating an experimental thrombosis in the tail of the test rat by intravenous injection (right caudal vein) of a thrombogenic substance such as κ-carrageenan. Without treatment, the tail of the animal totally forms thrombus without remission over time and ends up with necrosis after 3-4 days.
Particularly, this test was carried out according to the general outlines in Beckmeier et al, Agents and Actions, 16, 446 (1985), as follows:
a. Animals: female rats of 200-300 grams weight.
b. Thrombosing Solution: κ carrageenan Type II solution (Sigma C 1263) 1 mg/ml in sterile physiologic solution. 1 ml /kg of animal (right caudal vein of the tail) is injected (0.25 ml).
c. Thrombus induction: a tourniquet is placed near the tail base (15 cm from the end thereof) which was previously shaved. After 1 minute a thrombosing solution is injected and the animal tail is immediately immersed for 30 seconds in ice water, water is removed, it is dried and the tourniquet is kept for an additional 30 seconds. Then, the animal is kept for 2 minutes in a chamber at 10° C.
d. […]

IIa [6] = target: T1, IIa; details: LMWH sodium salt by radical fragmentation methods, European Pat. 268885, U.S. Pat. No. 4,977,250; cited from earlier work
Xa [7] = details: LMWH sodium salt by radical fragmentation methods, European Pat. 268885, U.S. Pat. No. 4,977,250; cited from earlier work
[8] = Example 3 comparison: LMWH-TEA of Example 2 vs lyophilizate with mannitol (60:40)
[9] = theoretical calculation: 100 g LMWH-Na = 167 g LMWH-TEA

Substance: heparin [Injectable Heparin]
- EP Strength ([1]; starting injectable heparin of Example 1): 182 iu/mg
- EP Strength ([1]; starting injectable heparin of Example 2): 180 iu/mg

Substance: low molecular weight heparin salt with triethanolamine [LMWH-TEA]
- anti IIa Strength (IIa [2]; [8]): 24 iu/mg
- anti IIa Strength (IIa [2]; product of Example 1): 24 iu/mg
- anti IIa Strength (IIa [2]; product of Example 2): 24 iu/mg
- anti IIa, Experimental (IIa [2]; summary of experimental data): 24 iu/mg
- anti IIa, Theoretical (IIa [2]; [9]): 24 iu/mg
- anti Xa Strength (Xa [3]; [8]): 50 iu/mg
- anti Xa Strength (Xa [3]; product of Example 1 (HClO depolymerization, diafiltration with TEA)): 51 iu/mg
- anti Xa Strength (Xa [3]; product of Example 2 (H2O2/FeSO4 depolymerization, ion exchange resin, TEA)): 50 iu/mg
- anti Xa, Experimental (Xa [3]; summary of experimental data): 50-51 iu/mg
- anti Xa, Theoretical (Xa [3]; [9]): 54 iu/mg
- hygroscopicity [4]: highly hygroscopic
- efficacy against thrombosis, in words [5]: highly significant restitutive activity

Substance: low molecular weight heparin sodium salt [LMWH Na]
- anti IIa Strength (IIa [6]): ~40 iu/mg
- anti Xa Strength (Xa [7]): ~90 iu/mg
